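48-hour exposure; five concentrations; linearly interpolated endpoints. GI50 marks 50% less growth.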 Activity calls are given as the source filed them. Cut-off read from the data, not from the text of the source: active = GI50 up to about 1.1 µM and inactive = higher.

Test systems include CAKI-1; DMS-273; HCT-15; HL-60; HT-29; KM12; OVCAR-4; RPMI-8226; SF-268; SF-295; SK-MEL-2; SK-MEL-5; SNB-75; UACC-257; UACC-62; UO-31; EKVX; HCT-116.
What all share (assay): DTP human tumour cell line panel, 48 h

Regarding `CC(C)(C)C(=O)ON1N=NC2C3CC(OCc4ccccc4)(OCc4ccccc4)C(O3)C21` (stereo unspecified), the GI50 (commonly the concentration at which growth is held to half of that of the control) in the experiment with CAKI-1 was 31 µM (inactive); in the experiment with DMS-273, 22.3 µM (inactive); in the experiment with HCT-15 it was 20.1 µM; in the experiment on HL-60, 3.79 µM (inactive); with HT-29, 22.3 µM (inactive); in the experiment on KM12, 23.6 µM (inactive). The GI50 in the experiment on OVCAR-4 was 22.6 µM (inactive); in the experiment with RPMI-8226, 7.38 µM (inactive); with SF-268 it was 29.1 µM (inactive); in the experiment with SF-295 it was 22.1 µM (inactive); with SK-MEL-2 it was 19.1 µM (inactive); in the experiment on SK-MEL-5 it was 15.6 µM (inactive). Moreover, the GI50 in the experiment with SNB-75 is 24.1 µM (inactive); in the experiment with UACC-257 it was 13.7 µM (inactive); in the experiment on UACC-62, 18.5 µM (inactive); in the experiment on UO-31, 22.4 µM (inactive).

Consider `C1CCC(N=C2N(C3CCCCC3)C(=NC3CCCCC3)N2C2CCCCC2)CC1`, for which the GI50 in the experiment with DMS-273 is > 100 µM (inactive); in the experiment on EKVX it was > 100 µM (inactive); with HCT-116, > 100 µM (inactive); with HCT-15 it was over 100 µM; with HL-60, > 100 µM (inactive); in the experiment with HT-29, > 100 µM (inactive). Besides, the GI50 in the experiment with KM12, in the experiment on OVCAR-4, in the experiment on RPMI-8226, in the experiment on SF-268, in the experiment with SF-295 and in the experiment with SK-MEL-2 was > 100 µM (inactive) in each case. The GI50 with SK-MEL-5 is > 100 µM (inactive); with SNB-75, 20.9 µM (inactive); in the experiment with UACC-257 it was > 100 µM (inactive); in the experiment on UACC-62, > 100 µM (inactive); in the experiment with UO-31 it was > 100 µM (inactive).

As for `CCN(CC)C(=O)Cc1[nH][nH]c(=O)c1C(=O)N(CC)CC`, the GI50 in the experiment with DMS-273 was > 100 µM (inactive); with EKVX it was > 100 µM (inactive); in the experiment on HCT-116 it was > 100 µM (inactive); in the experiment with HCT-15, over 100 µM; with HL-60, > 100 µM (inactive); with HT-29, > 100 µM (inactive). In addition, the GI50 with KM12, in the experiment on OVCAR-4, with RPMI-8226, in the experiment on SF-268, with SF-295 and in the experiment on SK-MEL-2 was > 100 µM (inactive) each time. Also, the GI50 in the experiment on SNB-75, in the experiment on UACC-257, in the experiment on UACC-62 and in the experiment with UO-31 was > 100 µM (inactive) in each case.

Consider `CN(C)CCNC(=O)c1cccc2nc3ccc4cccnc4c3nc12`, for which the GI50 was 0.224 µM (active) in the experiment with CAKI-1; 0.118 µM (active) with DMS-273; 0.507 µM (active) with EKVX; 0.0467 µM (active) in the experiment with HCT-116; 0.209 µM in the experiment with HCT-15; 0.348 µM (active) in the experiment with HL-60. For the same molecule, the GI50 with HT-29 is 0.208 µM (active); with KM12 it was 0.564 µM (active); with OVCAR-4 it was 0.468 µM (active); in the experiment with SF-268 it was 0.298 µM (active); with SF-295, 0.644 µM (active); with SK-MEL-2, 0.895 µM (active). For the same molecule, the GI50 was 0.343 µM (active) in the experiment on SK-MEL-5; 0.507 µM (active) in the experiment with SNB-75; 0.447 µM (active) with UACC-257; 0.457 µM (active) with UACC-62; 0.205 µM (active) in the experiment on UO-31.

As to `COc1ccc(/C=C/C(=O)C(C)C)cc1`, the GI50 is 44.8 µM (inactive) in the experiment with CAKI-1; 38.5 µM (inactive) in the experiment with DMS-273; 45.3 µM (inactive) in the experiment on EKVX; 49.8 µM (inactive) in the experiment on HCT-116; 27.2 µM with HCT-15; 22.9 µM (inactive) in the experiment on HL-60. Moreover, the GI50 in the experiment with HT-29 is 29 µM (inactive); in the experiment with KM12, 33.6 µM (inactive); with OVCAR-4, 47.9 µM (inactive); in the experiment with SF-268, 42.3 µM (inactive); in the experiment with SF-295 it was 31.6 µM (inactive); in the experiment on SK-MEL-2, 27.7 µM (inactive). The GI50 with SK-MEL-5 is 48.1 µM (inactive); in the experiment with SNB-75, 40.6 µM (inactive); with UACC-257, 63.7 µM (inactive); with UACC-62, 45 µM (inactive); in the experiment on UO-31, 80.2 µM (inactive).

On to `O=C1Nc2cc([N+](=O)[O-])c(Br)cc2C1=O`, for which the GI50 in the experiment on CAKI-1 is 19.1 µM (inactive); in the experiment with DMS-273, 20.1 µM (inactive); with EKVX it was 22.4 µM (inactive); with HCT-15, 18.9 µM; in the experiment with HT-29 it was 20.2 µM (inactive); in the experiment on KM12 it was 51.4 µM (inactive). The GI50 in the experiment on OVCAR-4 is 16.4 µM (inactive); with RPMI-8226, 17.6 µM (inactive); in the experiment on SF-268, 20.9 µM (inactive); in the experiment with SF-295 it was 3.68 µM (inactive); with SK-MEL-2 it was 26.7 µM (inactive); with SK-MEL-5, 21.1 µM (inactive). Also, the GI50 in the experiment with SNB-75 was 19 µM (inactive); in the experiment on UACC-257, 18 µM (inactive); in the experiment with UACC-62 it was 18.7 µM (inactive); in the experiment with UO-31, 18.5 µM (inactive).

In the case of `CCOc1cccc2c1N[S@@](=O)S2`, the GI50 in the experiment with CAKI-1 is > 100 µM (inactive); in the experiment on DMS-273 it was > 100 µM (inactive); in the experiment with EKVX it was > 100 µM (inactive); in the experiment with HCT-116, > 100 µM (inactive); in the experiment with HCT-15, over 100 µM; in the experiment with HL-60, > 100 µM (inactive). The GI50 was > 100 µM (inactive) in the experiment with HT-29; > 100 µM (inactive) in the experiment with KM12; 98.2 µM (inactive) with RPMI-8226; > 100 µM (inactive) with SF-268; 80.4 µM (inactive) with SF-295; > 100 µM (inactive) in the experiment with SK-MEL-2. The GI50 in the experiment on SNB-75 was > 100 µM (inactive); with UACC-257, > 100 µM (inactive); in the experiment on UACC-62, 49.2 µM (inactive); with UO-31 it was 98.4 µM (inactive).

With `NC1CCCCC1.O=P(O)(O)C1(P(=O)(O)O)CC1`, the GI50 with CAKI-1 is > 100 µM (inactive); with DMS-273, > 100 µM (inactive); in the experiment with EKVX it was > 100 µM (inactive); in the experiment on HCT-116 it was > 100 µM (inactive); with HCT-15, over 100 µM; in the experiment on HT-29 it was > 100 µM (inactive). The GI50 with KM12, in the experiment with OVCAR-4, in the experiment with RPMI-8226, in the experiment on SF-268, in the experiment on SF-295 and with SK-MEL-2 was > 100 µM (inactive) in each case. Besides, the GI50 in the experiment with SK-MEL-5, in the experiment with SNB-75, in the experiment with UACC-257, with UACC-62 and in the experiment on UO-31 was > 100 µM (inactive) each time.

For `CN[C@@H](C)[C@H](N)c1ccccc1`, the GI50 in the experiment on CAKI-1 was > 100 µM (inactive); in the experiment with DMS-273 it was > 100 µM (inactive); in the experiment on EKVX it was > 100 µM (inactive); with HCT-116 it was > 100 µM (inactive); in the experiment with HCT-15, over 100 µM; in the experiment on HT-29, > 100 µM (inactive). In addition, the GI50 with KM12, with RPMI-8226, in the experiment with SF-295, in the experiment on SK-MEL-5, with SNB-75 and in the experiment with UACC-257 was > 100 µM (inactive) each time. Further, the GI50 with UACC-62 and in the experiment with UO-31 was > 100 µM (inactive) throughout.

The values above are taken from ChEMBL document CHEMBL1201862, “PubChem BioAssay data set” (2004).
